Values of other authors as cited in article PMC10855781 (International Journal of Molecular Sciences, 2024).

Tests used:
[1] = test system: PC-3 human prostatic adenocarcinoma; design: method as in PMID 36834815; conditions: s.c. PC-3; i.p. 10 mg Dau-content/kg every fifth day from day 9, five treatments; day 33; Dau 1 mg/kg, terminated day 26; ref [84]
Description: This 14-mer peptide (Glp-[…]NH2), first discovered in the skin of the frog Bombina bombina, is associated with the gastrin-releasing peptide (GRP) as a mammalian counterpart. The bombesin receptor family comprises neuromedin receptor B (NMB-R, or BB1), gastrin-releasing peptide receptor (GRP-R, or BB2) and bombesin receptor subtype 3 (BRS-3, or BB3). Among them, GRP-R has been the most investig ...

PANC-1 tumor = conditions: ref [110]
Procedure: The in vivo tumor growth inhibitory effect of the conjugate and free Dau was investigated on s.c.-developed PANC-1 tumor-bearing SCID female mice. The free drug was applied once a week at a maximum tolerated dose of 1 mg/kg body weight (three treatments), while the conjugate was administered, on average, three times per a week either at a 2 mg/kg or 10 mg/kg dose, calculated as per the Dau content (eighteen treatments altogether). The first treatment was given on day 10 after tumor inoculation. After the third treatment with free Dau, the animals lost 20% of their weight; therefore, the mice i ...

[2] = test system: Human cardiac myocytes (HCM); design: key: 0: no cardiotoxicity; +: weak; ++: moderate; +++: strong cardiotoxicity; conditions: long-term (0–72 h) cytotoxic effect, impedimetric; ref [75]
Description: Table 2 Comparative study of cytotoxic effects and cardiotoxicity elicited by selected GnRH-based anthracycline conjugates. | column: Cardiotoxicity || The main drug-related toxic side effect of anthracyclines is cardiotoxicity, leading to cardiomyopathy and heart failure. Comparative experiments to determine the cardiotoxicity of peptide–anthracycline conjugates with different linkages might be informative for the other conjugates with different types of drugs as well. For this purpose, human cardiomyocytes (HCM) and human umbilical vein endothelial cells (HUVEC) were used as models. The long-term (0–72 h) cytotoxic effect of sixteen GnRH-based conjugates containing Dox and Dau was determined by real-time impedimetric sensing using th ...

[3] = test system: human breast adenocarcinoma (MCF-7); conditions: ref [75]
Description: Table 2 Comparative study of cytotoxic effects and cardiotoxicity elicited by selected GnRH-based anthracycline conjugates. | column: IC50 Values (μM)

COc1cccc2c1C(=O)c1c(O)c3c(c(O)c1C2=O)C[C@@](O)(C(C)=O)C[C@@H]3O[C@H]1C[C@H](N)[C@H](O)[C@H](C)O1 [Dau, daunomycin]
tumor volume inhibition [1]: without showing a significant reduction
decrease in liver weight (PANC-1 tumor; Dau 1 mg/kg once a week, three treatments): 29.1%
body weight loss (PANC-1 tumor; after third treatment, 1 mg/kg once a week, sacrificed day 28): 20%
Cardiotoxicity, HCM [2]: +++
IC50 [3]: 400 ± 100 nM
